The supplement of paper PMC10627819

Columns and labels:
Test in all cases: fitness (endpoint OD595 vs no drug) (fraction); higher = more growth
[1] = system: B. subtilis 168
Procedure, shortened: (§1)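 Bacterial fitness was scored as optical density at the stationary-phase transition relative to the robust mean of no-drug control wells. Scores are capped at 1. The growth data were OD595 readings every 30 min for 14 h at 37 °C, background-subtracted against the first reading, from 384-well plates inoculated at OD595 0.01 in TSB, LB Lennox or CY.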

[2] = system: S. aureus DSM 20231
Procedure, shortened: as §1

[3] = system: S. pneumoniae D39V
Procedure, shortened: as §1
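Also: OD595 on entry to stationary phase over no-drug wells; at most 1.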

CN(C)[C@@H]1C(O)=C(C(N)=O)C(=O)[C@@]2(O)C(O)=C3C(=O)c4c(O)ccc(Cl)c4[C@@](C)(O)[C@H]3C[C@@H]12 [Chlortetracycline] + O=C(O[C@@H]1Cc2c(O)cc(O)cc2O[C@@H]1c1cc(O)c(O)c(O)c1)c1cc(O)c(O)c(O)c1 [EGCG]
fitness
Details | partner 6.25 µg/mL | partner 12.5 µg/mL | partner 25 µg/mL | partner 50 µg/mL
[1], first compound 0.0475 µg/mL | 0.911 | – | 0.303 | –
[1], first compound 0.095 µg/mL | 0.754 | 0.463 | – | –
[1], first compound 0.19 µg/mL | 0.484 | 0.214 | 0.0594 | –
[2], first compound 0.012 µg/mL | – | 0.595 | 0.549 | –
[2], first compound 0.024 µg/mL | – | 0.455 | 0.398 | 0.332
[2], first compound 0.048 µg/mL | – | 0.138 | 0.108 | 0
[3], first compound 0.012 µg/mL | – | 0.759 | 0.805 | 0.949
[3], first compound 0.024 µg/mL | – | 0.444 | 0.454 | 0.672
[3], first compound 0.048 µg/mL | – | 0.247 | 0.212 | –
[3], first compound 0.375 µg/mL | – | 0.07 | 0.0693 | 0.0612
[3], first compound 0.75 µg/mL | – | 0.0431 | 0.0527 | 0.0692
[3], first compound 1.5 µg/mL | – | 0.0475 | 0.0473 | 0.0718

[2], first compound 0.006 µg/mL, one replicate
Details | fitness
partner 12.5 µg/mL | 0.65
partner 25 µg/mL | 0.623
partner 50 µg/mL | 0.673

CN(C)[C@@H]1C(O)=C(C(N)=O)C(=O)[C@@]2(O)C(O)=C3C(=O)c4c(O)ccc(Cl)c4[C@@](C)(O)[C@H]3C[C@@H]12 [Chlortetracycline] + CN[C@@H]1[C@H](O)[C@H](NC)[C@H]2O[C@@]3(O)C(=O)C[C@@H](C)O[C@H]3O[C@@H]2[C@H]1O [Spectinomycin]
fitness
Details | partner 2 µg/mL | partner 4 µg/mL | partner 8 µg/mL | partner 16 µg/mL
[1], first compound 0.0475 µg/mL | 0.885 | 0.884 | 0.752 | –
[1], first compound 0.095 µg/mL | 0.803 | 0.806 | 0.691 | –
[1], first compound 0.19 µg/mL | 0.523 | 0.409 | 0.199 | –
[2], first compound 0.012 µg/mL | – | 0.529 | – | 0.494
[2], first compound 0.024 µg/mL | – | 0.203 | – | –
[2], first compound 0.048 µg/mL | – | 0.137 | 0.0943 | 0.05
[3], first compound 0.375 µg/mL | – | 0.0802 | 0.0586 | 0.0693
[3], first compound 0.75 µg/mL | – | 0.0886 | 0.0941 | 0.0722
[3], first compound 1.5 µg/mL | – | 0.0871 | 0.0754 | 0.0779

fitness, one replicate
Details | first compound 0.006 µg/mL | first compound 0.012 µg/mL | first compound 0.024 µg/mL | first compound 0.048 µg/mL
[2], partner 4 µg/mL | 0.669 | – | – | –
[2], partner 8 µg/mL | 0.707 | – | – | –
[2], partner 16 µg/mL | 0.655 | – | – | –
[2], partner 32 µg/mL | – | 0.298 | 0.058 | 0.0249
[2], partner 64 µg/mL | – | 0.0229 | 0.0093 | 0.0056
[3], partner 4 µg/mL | – | 0.901 | 0.859 | 0.795
[3], partner 8 µg/mL | – | 0.853 | 0.859 | 0.78

CN(C)[C@@H]1C(O)=C(C(N)=O)C(=O)[C@@]2(O)C(O)=C3C(=O)c4c(O)ccc(Cl)c4[C@@](C)(O)[C@H]3C[C@@H]12 [Chlortetracycline] + CC1=C\[C@@H](O)CC(=O)Cc2nc(co2)C(=O)N2CCC=C2C(=O)O[C@H](C(C)C)[C@H](C)/C=C/C(=O)NC\C=C\1 [Virginiamycin M1]
Details | fitness
[1], first compound 0.0475 µg/mL, partner 0.0625 µg/mL | 0.874
[1], first compound 0.0475 µg/mL, partner 0.125 µg/mL | 0.898
[1], first compound 0.0475 µg/mL, partner 0.25 µg/mL | 0.87
[1], first compound 0.095 µg/mL, partner 0.0625 µg/mL | 0.823
[1], first compound 0.095 µg/mL, partner 0.125 µg/mL | 0.725
[1], first compound 0.095 µg/mL, partner 0.25 µg/mL | 0.759
[1], first compound 0.19 µg/mL, partner 0.0625 µg/mL | 0.55
[1], first compound 0.19 µg/mL, partner 0.125 µg/mL | 0.547
[1], first compound 0.19 µg/mL, partner 0.25 µg/mL | 0.568
[2], first compound 0.012 µg/mL, partner 0.0625 µg/mL | 0.565
[2], first compound 0.012 µg/mL, partner 0.125 µg/mL | 0.533
[2], first compound 0.012 µg/mL, partner 0.25 µg/mL | 0.567
[2], first compound 0.024 µg/mL, partner 0.0625 µg/mL | 0.191
[2], first compound 0.024 µg/mL, partner 0.125 µg/mL | 0.183
[2], first compound 0.024 µg/mL, partner 0.25 µg/mL | 0.188
[2], first compound 0.048 µg/mL, partner 0.0625 µg/mL | 0.0421
[2], first compound 0.048 µg/mL, partner 0.125 µg/mL | 0.0556
[2], first compound 0.048 µg/mL, partner 0.25 µg/mL | 0.0619
[3], first compound 0.012 µg/mL, partner 2 µg/mL | 0.817
[3], first compound 0.024 µg/mL, partner 2 µg/mL | 0.787
[3], first compound 0.048 µg/mL, partner 2 µg/mL | 0.74
[3], first compound 0.375 µg/mL, partner 0.5 µg/mL | 0.025
[3], first compound 0.375 µg/mL, partner 1 µg/mL | 0.0379
[3], first compound 0.375 µg/mL, partner 2 µg/mL | 0.0569
[3], first compound 0.75 µg/mL, partner 0.5 µg/mL | 0.0422
[3], first compound 0.75 µg/mL, partner 1 µg/mL | 0.0446
[3], first compound 0.75 µg/mL, partner 2 µg/mL | 0.0829
[3], first compound 1.5 µg/mL, partner 0.5 µg/mL | 0.0504
[3], first compound 1.5 µg/mL, partner 1 µg/mL | 0.0561
[3], first compound 1.5 µg/mL, partner 2 µg/mL | 0.0443

fitness, one replicate
Details | first compound 0.006 µg/mL | first compound 0.012 µg/mL | first compound 0.024 µg/mL | first compound 0.048 µg/mL
[2], partner 0.0625 µg/mL | 0.776 | – | – | –
[2], partner 0.125 µg/mL | 0.785 | – | – | –
[2], partner 0.25 µg/mL | 0.809 | – | – | –
[2], partner 0.5 µg/mL | – | 0.495 | 0.146 | 0.0554
[2], partner 1 µg/mL | – | 0.462 | 0.284 | 0.263
[3], partner 0.15 µg/mL | – | 0.955 | 0.895 | 0.825
[3], partner 0.3 µg/mL | – | 0.86 | 0.859 | 0.782
[3], partner 0.5 µg/mL | – | 0.889 | 0.89 | 0.848
[3], partner 1 µg/mL | – | 0.88 | 0.845 | 0.761
